Measured values reported in patent US11458123B2 (Arvinas, Inc., priority 2016, dated 2022).

Tested on: tau protein
Assay: Tau protein in vitro degradation assay (Western blot, Tau-13 antibody)
Assay type: cell-based, human
Conditions: SK-N-SH cells; 72 hours of incubation; tested at 300 nM, 100 nM, 33 nM and 11 nM; Western blot, Tau-13 antibody
In short: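 SK-N-SH cells, seeded ≥18 h beforehand, were incubated 72 h with tau PROTACs at 1000, 300 and 100 nM or at 300, 100, 33 and 11 nM. Lysates in protease-inhibitor buffer were resolved by SDS-PAGE; tau quantified by Western blot with Tau-13 antibody recognising all human tau forms.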

| SMILES | Degradation activity* (highest amount of degradation observed at any dosage; tau protein remaining) |
| --- | --- |
| Cn1c2ccncc2c2ccc(-c3ccc(O[C@H]4C[C@H](Oc5ccnc(OCCCCCCOc6ccc7c(c6)C(=O)N(C6CCC(=O)NC6=O)C7=O)c5)C4)nc3)cc21 (stereo partly shown) [Compound 109, 2-(2,6-dioxopiperidin-3-yl)-5-((6-((4-((1r,3r)-3-((5-(5-methyl-5H-pyrido[4,3-b]indol-7-yl)pyridin-2-yl)oxy)cyclobutoxy)pyridin-2-yl)oxy)hexyl)oxy)isoindoline-1,3-dione] | C (>80% tau protein remaining after 72 hours of incubation with the test compound) |
| Cn1c2ccncc2c2ccc(-c3ccc(O[C@H]4C[C@H](Oc5ccc(CCCCCCOc6ccc7c(c6)C(=O)N(C6CCC(=O)NC6=O)C7=O)cn5)C4)nc3)cc21 (stereo partly shown) [Compound 110, 2-(2,6-dioxopiperidin-3-yl)-5-((6-(6-((1r,3r)-3-((5-(5-methyl-5H-pyrido[4,3-b]indol-7-yl)pyridin-2-yl)oxy)cyclobutoxy)pyridin-3-yl)hexyl)oxy)isoindoline-1,3-dione] | C (>80% tau protein remaining after 72 hours of incubation with the test compound) |
| Cn1c2ccncc2c2ccc(-c3ccc(O[C@H]4C[C@H](Oc5ccc(C#CCOC6CN(c7ccc8c(c7)C(=O)N(C7CCC(=O)NC7=O)C8=O)C6)nc5)C4)nc3)cc21 (stereo partly shown) [Compound 111, 2-(2,6-dioxopiperidin-3-yl)-5-(3-((3-(5-((1r,3r)-3-((5-(5-methyl-5H-pyrido[4,3-b]indol-7-yl)pyridin-2-yl)oxy)cyclobutoxy)pyridin-2-yl)prop-2-yn-1-yl)oxy)azetidin-1-yl)isoindoline-1,3-dione] | C (>80% tau protein remaining after 72 hours of incubation with the test compound) |
| Cn1c2ccncc2c2c(F)c(F)c(-c3ccc(OCCOCCOCCOCCOCCOc4ccc5c(c4)C(=O)N(C4CCC(=O)NC4=O)C5=O)nc3)cc21 (stereo not shown) [Compound 112, 5-((14-((5-(8,9-difluoro-5-methyl-5H-pyrido[4,3-b]indol-7-yl)pyridin-2-yl)oxy)-3,6,9,12-tetraoxatetradecyl)oxy)-2-(2,6-dioxopiperidin-3-yl)isoindoline-1,3-dione] | A (≤50% tau protein remaining after 72 hours of incubation with the test compound) |
| Cn1c2ccncc2c2ccc(-c3cnc(OCCOCCOCCOCCOCCOc4ccc5c(c4)C(=O)N(C4CCC(=O)NC4=O)C5=O)cc3Cl)cc21 (stereo not shown) [Compound 113, 5-((14-((4-chloro-5-(5-methyl-5H-pyrido[4,3-b]indol-7-yl)pyridin-2-yl)oxy)-3,6,9,12-tetraoxatetradecyl)oxy)-2-(2,6-dioxopiperidin-3-yl)isoindoline-1,3-dione] | C (>80% tau protein remaining after 72 hours of incubation with the test compound) |
| Cn1c2ccncc2c2ccc(-c3ccc(O[C@H]4C[C@H](OCCCCOCCCCCOc5ccc6c(c5)C(=O)N(C5CCC(=O)NC5=O)C6=O)C4)nc3)cc21 (stereo partly shown) [Compound 114, 2-(2,6-dioxopiperidin-3-yl)-5-((5-(4-((1r,3r)-3-((5-(5-methyl-5H-pyrido[4,3-b]indol-7-yl)pyridin-2-yl)oxy)cyclobutoxy)butoxy)pentyl)oxy)isoindoline-1,3-dione] | C (>80% tau protein remaining after 72 hours of incubation with the test compound) |
| Cn1c2ccncc2c2ccc(-c3ccc(N4CC(OCCCCCOCCCCCOc5ccc6c(c5)C(=O)N(C5CCC(=O)NC5=O)C6=O)C4)nc3)cc21 (stereo not shown) [Compound 115, 2-(2,6-dioxopiperidin-3-yl)-5-((5-((5-((1-(5-(5-methyl-5H-pyrido[4,3-b]indol-7-yl)pyridin-2-yl)azetidin-3-yl)oxy)pentyl)oxy)pentyl)oxy)isoindoline-1,3-dione] | C (>80% tau protein remaining after 72 hours of incubation with the test compound) |
| Cn1c2ccncc2c2ccc(-c3ccc(OCCCCOCCCCN4CC5(CC(Oc6ccc7c(c6)C(=O)N(C6CCC(=O)NC6=O)C7=O)C5)C4)nc3)cc21 (stereo not shown) [Compound 116, 2-(2,6-dioxopiperidin-3-yl)-5-((2-(4-(4-((5-(5-methyl-5H-pyrido[4,3-b]indol-7-yl)pyridin-2-yl)oxy)butoxy)butyl)-2-azaspiro[3.3]heptan-6-yl)oxy)isoindoline-1,3-dione] | C (>80% tau protein remaining after 72 hours of incubation with the test compound) |
| Cn1c2ccncc2c2ccc(-c3ccc(O[C@H]4C[C@H](Oc5ccc(C#CCOc6ccc7c(c6)C(=O)N(C6CCC(=O)NC6=O)C7=O)nc5)C4)nc3)cc21 (stereo partly shown) [Compound 117, 2-(2,6-dioxopiperidin-3-yl)-5-((3-(5-((1r,3r)-3-((5-(5-methyl-5H-pyrido[4,3-b]indol-7-yl)pyridin-2-yl)oxy)cyclobutoxy)pyridin-2-yl)prop-2-yn-1-yl)oxy)isoindoline-1,3-dione] | C (>80% tau protein remaining after 72 hours of incubation with the test compound) |
| Cn1c2ccncc2c2ccc(-c3cnc(O[C@H]4C[C@H](Oc5ccc(C#CCOC6CN(c7ccc8c(c7)C(=O)N(C7CCC(=O)NC7=O)C8=O)C6)nc5)C4)c(C(F)(F)F)c3)cc21 (stereo partly shown) [Compound 118, 2-(2,6-dioxopiperidin-3-yl)-5-(3-((3-(5-((1r,3r)-3-((5-(5-methyl-5H-pyrido[4,3-b]indol-7-yl)-3-(trifluoromethyl)pyridin-2-yl)oxy)cyclobutoxy)pyridin-2-yl)prop-2-yn-1-yl)oxy)azetidin-1-yl)isoindoline-1,3-dione] | C (>80% tau protein remaining after 72 hours of incubation with the test compound) |
| Cc1ncsc1-c1ccc([C@H](C)NC(=O)[C@@H]2C[C@@H](O)CN2C(=O)[C@@H](NC(=O)COCCOCCOCCOCCOc2ncc(-c3ccc4c(c3)[nH]c3ccncc34)cc2C(F)(F)F)C(C)(C)C)cc1 [Compound 119, (2S,4R)-1-((S)-17-((5-(5H-pyrido[4,3-b]indol-7-yl)-3-(trifluoromethyl)pyridin-2-yl)oxy)-2-(tert-butyl)-4-oxo-6,9,12,15-tetraoxa-3-azaheptadecanoyl)-4-hydroxy-N—((S)-1-(4-(4-methylthiazol-5-yl)phenyl)ethyl)pyrrolidine-2-carboxamide] | C (>80% tau protein remaining after 72 hours of incubation with the test compound) |
| Cc1ncsc1-c1ccc([C@H](C)NC(=O)[C@@H]2C[C@@H](O)CN2C(=O)[C@@H](NC(=O)COCCOc2ccc(-c3ccc4c(c3)[nH]c3ccncc34)cn2)C(C)(C)C)cc1 [Compound 120, (2S,4R)-1-((S)-2-(2-(2-((5-(5H-pyrido[4,3-b]indol-7-yl)pyridin-2-yl)oxy)ethoxy)acetamido)-3,3-dimethylbutanoyl)-4-hydroxy-N—((S)-1-(4-(4-methylthiazol-5-yl)phenyl)ethyl)pyrrolidine-2-carboxamide] | C (>80% tau protein remaining after 72 hours of incubation with the test compound) |
| Cc1ncsc1-c1ccc([C@H](C)NC(=O)[C@@H]2C[C@@H](O)CN2C(=O)[C@@H](NC(=O)COCCOCCOCCOCCOCCOc2ccc(-c3ccc4c(c3)[nH]c3ccncc34)cn2)C(C)(C)C)cc1 [Compound 121, (2S,4R)-1-((S)-20-((5-(5H-pyrido[4,3-b]indol-7-yl)pyridin-2-yl)oxy)-2-(tert-butyl)-4-oxo-6,9,12,15,18-pentaoxa-3-azaicosanoyl)-4-hydroxy-N—((S)-1-(4-(4-methylthiazol-5-yl)phenyl)ethyl)pyrrolidine-2-carboxamide] | B (≤80% and >50% tau protein remaining after 72 hours of incubation with the test compound) |
| Cc1ncsc1-c1ccc([C@H](C)NC(=O)[C@@H]2C[C@@H](O)CN2C(=O)[C@@H](NC(=O)COCCOCCOCCOCCOCCOCCOc2ccc(-c3ccc4c(c3)[nH]c3ccncc34)cn2)C(C)(C)C)cc1 [Compound 122, (2S,4R)-1-((S)-23-((5-(5H-pyrido[4,3-b]indol-7-yl)pyridin-2-yl)oxy)-2-(tert-butyl)-4-oxo-6,9,12,15,18,21-hexaoxa-3-azatricosanoyl)-4-hydroxy-N—((S)-1-(4-(4-methylthiazol-5-yl)phenyl)ethyl)pyrrolidine-2-carboxamide] | C (>80% tau protein remaining after 72 hours of incubation with the test compound) |
| Cn1c2ccncc2c2ccc(-c3cnc(O[C@H]4C[C@H](OC5CCN(CCCCCOc6ccc7c(c6)C(=O)N(C6CCC(=O)NC6=O)C7=O)CC5)C4)c(C(F)(F)F)c3)cc21 (stereo partly shown) [Compound 123, 2-(2,6-dioxopiperidin-3-yl)-5-((5-(4-((1r,3r)-3-((5-(5-methyl-5H-pyrido[4,3-b]indol-7-yl)-3-(trifluoromethyl)pyridin-2-yl)oxy)cyclobutoxy)piperidin-1-yl)pentyl)oxy)isoindoline-1,3-dione] | C (>80% tau protein remaining after 72 hours of incubation with the test compound) |
| Cn1c2ccncc2c2ccc(-c3ccc(O[C@H]4C[C@H](Oc5ccc(C#CCCCCOc6ccc7c(c6)C(=O)N(C6CCC(=O)NC6=O)C7=O)cc5)C4)nc3)cc21 (stereo partly shown) [Compound 124, 2-(2,6-dioxopiperidin-3-yl)-5-((6-(4-((1r,3r)-3-((5-(5-methyl-5H-pyrido[4,3-b]indol-7-yl)pyridin-2-yl)oxy)cyclobutoxy)phenyl)hex-5-yn-1-yl)oxy)isoindoline-1,3-dione] | C (>80% tau protein remaining after 72 hours of incubation with the test compound) |
